The target of the assay is T1, recombinant human PAI-1 (Homo sapiens, UniProt P05121).
T1 construct: purchased Molecular Innovations, Inc
In words: Test Example 2: human PAI-1 inhibitory activity (tPA fluorogenic substrate, pH 7.4 HEPES buffer). Format: biochemical. Conditions: human PAI-1. As for the experimental part: 0.1 M HEPES, 0.1 M NaCl. 1 mM EDTA. 0.1% Polyethylene glycol 8,000 (Hampton Research Corporation),
2 mM Dimethyldecylphoshine oxide [Apo-10] (Fluka Corporation)

T1 sequence (P05121 24-402): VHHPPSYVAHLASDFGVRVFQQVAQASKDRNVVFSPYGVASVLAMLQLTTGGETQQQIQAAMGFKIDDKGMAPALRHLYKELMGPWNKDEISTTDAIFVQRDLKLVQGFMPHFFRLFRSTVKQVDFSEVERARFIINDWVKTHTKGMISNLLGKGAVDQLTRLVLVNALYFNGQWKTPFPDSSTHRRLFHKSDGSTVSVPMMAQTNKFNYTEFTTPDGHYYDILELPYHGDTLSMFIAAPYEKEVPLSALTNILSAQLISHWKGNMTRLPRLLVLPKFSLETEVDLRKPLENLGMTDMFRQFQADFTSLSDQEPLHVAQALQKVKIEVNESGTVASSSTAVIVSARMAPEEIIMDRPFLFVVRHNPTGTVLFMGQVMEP

Take `O=C(O)COc1ccc(-c2ccc(OC(F)(F)F)cc2)cc1Oc1ccc(OCc2ccccc2)cc1` [Compound 492]: the “Inhibition Rate of PAI-1 Activity (%)” value runs as follows: (compound concentration 0.1 μM) 5%; (compound concentration 0.3 μM) 20%; (compound concentration 1 μM) over 99%; (compound concentration 3 μM) over 99%.
As to `Cc1cc(C)cc(Oc2cc(-c3ccc(C(C)(C)C)cc3)ccc2/C=C/C(=O)O)c1` [Compound 494], the “Inhibition Rate of PAI-1 Activity (%)” value is 9% (compound concentration 0.1 μM), 24% (compound concentration 0.3 μM), 87% (compound concentration 1 μM) and 92% (compound concentration 3 μM).
The like results for `CC(C)(C)c1ccc(Oc2cc(-c3ccc(C(C)(C)C)cc3)ccc2/C=C/C(=O)O)cc1` [Compound 495] were, in that order, 8%, 64%, 98% and over 99%.
For the compound `Cc1cc(C)cc(-c2ccc(/C=C/C(=O)O)c(Oc3ccc(C(C)(C)C)cc3)c2)c1` [Compound 496], the “Inhibition Rate of PAI-1 Activity (%)” value (compound concentration 0.1 μM) was found to be 4%, the “Inhibition Rate of PAI-1 Activity (%)” value (compound concentration 0.3 μM) stood at 9%, the “Inhibition Rate of PAI-1 Activity (%)” value (compound concentration 1 μM) was determined as 85% and the “Inhibition Rate of PAI-1 Activity (%)” value (compound concentration 3 μM) is over 99%.
The like results for `CC(C)(C)c1ccc(Oc2cc(-c3ccc(C(C)(C)C)cc3)ccc2CCC(=O)O)cc1` [Compound 497] were, in that order, 3%, 24%, over 99% and over 99%.
`Cc1cc(C)cc(-c2ccc(CCC(=O)O)c(Oc3ccc(C(C)(C)C)cc3)c2)c1` [Compound 498]: the “Inhibition Rate of PAI-1 Activity (%)” value by setting is: (compound concentration 0.1 μM) 1%; (compound concentration 0.3 μM) 4%; (compound concentration 1 μM) 44%; (compound concentration 3 μM) over 99%.
`Cc1cc(C)cc(Oc2cc(-c3ccc(C(C)(C)C)cc3)ccc2CCC(=O)O)c1` [Compound 499]: the “Inhibition Rate of PAI-1 Activity (%)” value by setting is: (compound concentration 0.1 μM) 15%; (compound concentration 0.3 μM) 14%; (compound concentration 1 μM) 77%; (compound concentration 3 μM) 98%.
The like results for `CC(Oc1cc(-c2ccc(OC(F)(F)F)cc2)ccc1/C=C/C(=O)O)c1ccccc1` (centres unmarked) [Compound 500] were, in that order, 19%, 14%, 25% and 80%.
Taken in the same sequence, the figures for `CC(Oc1cc(-c2ccc(OC(F)(F)F)cc2)ccc1CCC(=O)O)c1ccccc1` (centres unmarked) [Compound 501] were 12%, 0%, 12% and 83%.
Consider `CC(C)(C)c1ccc(Oc2cc(-c3cccc(OC(F)(F)F)c3)ccc2/C=C/C(=O)O)cc1` [Compound 503], for which the “Inhibition Rate of PAI-1 Activity (%)” value is recorded as 13% (compound concentration 0.1 μM), 27% (compound concentration 0.3 μM), 97% (compound concentration 1 μM) and 93% (compound concentration 3 μM).
For the compound `CC(C)(C)c1ccc(Oc2cc(-c3cccc(OC(F)(F)F)c3)ccc2CCC(=O)O)cc1` [Compound 504], the “Inhibition Rate of PAI-1 Activity (%)” value (compound concentration 0.1 μM) worked out at 13%, the “Inhibition Rate of PAI-1 Activity (%)” value (compound concentration 0.3 μM) came to 26%, the “Inhibition Rate of PAI-1 Activity (%)” value (compound concentration 1 μM) stood at 91% and the “Inhibition Rate of PAI-1 Activity (%)” value (compound concentration 3 μM) is over 99%.
The like results for `O=C(O)/C=C/c1ccc(-c2ccc(OC(F)(F)F)cc2)cc1OC(c1ccccc1)c1ccccc1` [Compound 506] were, in that order, 2%, 9%, 78% and over 99%.
With `O=C(O)CCc1ccc(-c2ccc(OC(F)(F)F)cc2)cc1OC(c1ccccc1)c1ccccc1` [Compound 507], the “Inhibition Rate of PAI-1 Activity (%)” value was 6% (compound concentration 0.1 μM), 8% (compound concentration 0.3 μM), 49% (compound concentration 1 μM) and over 99% (compound concentration 3 μM).
As for `O=C(O)CCc1ccc(-c2ccc(OC(F)(F)F)cc2)cc1OCCCSc1ccccc1` [Compound 508], the “Inhibition Rate of PAI-1 Activity (%)” value is, setting by setting: (compound concentration 0.1 μM) 18%; (compound concentration 0.3 μM) 9%; (compound concentration 1 μM) 48%; (compound concentration 3 μM) 98%.
As for `CC(C)c1ccc(Oc2cc(-c3ccc(OC(F)(F)F)cc3)ccc2/C=C/C(=O)O)cc1` [Compound 509], the “Inhibition Rate of PAI-1 Activity (%)” value (compound concentration 0.1 μM) was 1%, the “Inhibition Rate of PAI-1 Activity (%)” value (compound concentration 0.3 μM) is recorded as 22%, the “Inhibition Rate of PAI-1 Activity (%)” value (compound concentration 1 μM) is 96% and the “Inhibition Rate of PAI-1 Activity (%)” value (compound concentration 3 μM) was over 99%.
As for `CC(C)c1ccc(Oc2cc(-c3ccc(OC(F)(F)F)cc3)ccc2CCC(=O)O)cc1` [Compound 510], the “Inhibition Rate of PAI-1 Activity (%)” value by setting is: (compound concentration 0.1 μM) 0%; (compound concentration 0.3 μM) 8%; (compound concentration 1 μM) 84%; (compound concentration 3 μM) over 99%.
For the compound `CCCCc1ccc(Oc2cc(-c3ccc(OC(F)(F)F)cc3)ccc2/C=C/C(=O)O)cc1` [Compound 511], the “Inhibition Rate of PAI-1 Activity (%)” value is, setting by setting: (compound concentration 0.1 μM) 11%; (compound concentration 0.3 μM) 68%; (compound concentration 1 μM) over 99%; (compound concentration 3 μM) over 99%.
Regarding `CCCCc1ccc(Oc2cc(-c3ccc(OC(F)(F)F)cc3)ccc2CCC(=O)O)cc1` [Compound 512], the “Inhibition Rate of PAI-1 Activity (%)” value turned out to be 18% (compound concentration 0.1 μM), 41% (compound concentration 0.3 μM), 96% (compound concentration 1 μM) and 98% (compound concentration 3 μM).
Take `CC(C)c1ccccc1Oc1cc(-c2ccc(OC(F)(F)F)cc2)ccc1OCC(=O)O` [Compound 513]: the “Inhibition Rate of PAI-1 Activity (%)” value is given as 17% (compound concentration 0.1 μM), 7% (compound concentration 0.3 μM), 69% (compound concentration 1 μM) and over 99% (compound concentration 3 μM).
Take `CC(C)(C)c1cccc(Oc2cc(-c3cccc(OC(F)(F)F)c3)ccc2/C=C/C(=O)O)c1` [Compound 514]: the “Inhibition Rate of PAI-1 Activity (%)” value runs as follows: (compound concentration 0.1 μM) 21%; (compound concentration 0.3 μM) 22%; (compound concentration 1 μM) 96%; (compound concentration 3 μM) over 99%.
The like results for `CC(C)(C)c1cccc(Oc2cc(-c3cccc(OC(F)(F)F)c3)ccc2CCC(=O)O)c1` [Compound 515] were, in that order, 12%, 16%, 86% and over 99%.
With `CC(C)c1ccc(Sc2cc(-c3ccc(OC(F)(F)F)cc3)ccc2/C=C/C(=O)O)cc1` [Compound 516], the “Inhibition Rate of PAI-1 Activity (%)” value reads like this: (compound concentration 0.1 μM) 16%; (compound concentration 0.3 μM) 39%; (compound concentration 1 μM) 98%; (compound concentration 3 μM) over 99%.
For the compound `CC(C)(C)c1ccc(Sc2cc(-c3ccc(OC(F)(F)F)cc3)ccc2CCC(=O)O)cc1` [Compound 517], the “Inhibition Rate of PAI-1 Activity (%)” value by setting is: (compound concentration 0.1 μM) 20%; (compound concentration 0.3 μM) 50%; (compound concentration 1 μM) 95%; (compound concentration 3 μM) over 99%.

For the origin of these results see patent US8633245B2, “PAI-1 inhibitor” (Institute of Medicinal Molecular Design, Inc., priority 2008, dated 2014).
